Measurements taken from patent US11597708B2, “Inhibitors of heat shock factors and uses thereof” (HSF Pharmaceuticals SA, priority 2016, dated 2023).

Key:
Assay type in all cases: cell-based, human
[1] = test system: HeLa; assay: Alamar Blue viability assay; settings: for Viability of HeLa cells (Alamar Blue): 96 hours exposure, attached cells
Protocol: FIG. 5. (A) Viability of HeLa cell cultures mock-exposed (−) or exposed to the indicated concentrations of compounds 001, 058 or 115. (B) Viability of MM.1S cells mock-exposed (−) or exposed to the indicated concentrations of compound 115. Viability was assayed after 96 hours of exposure using an Alamar Blue assay.
FIG. 6. (A) HeLa cell cultures were mock-exposed (−) or exposed to the indicated concentrations of compound 115 for 24 (left panel) or 96 (right panel) hours. Cell viability of total cultures, floating cells and attached cells was assayed using an Alamar Blue assay. (B) HeLa cell cultures were mock-exposed (−) or exposed to the indicated concentrations of compound 115 for 15-96 hours. Trypan Blue dye exclusion was employed to determine numbers of live cells (left panel) and relative levels of necrotic cells (right panel). (C) HeLa cell cultures were mock-exposed (−) or exposed to the indicated concentrations of compound 115 for 6 and 24 h. Shown are relative levels of early apoptotic cells (annexin-positive, 7 aminoactinomycin D-negative). (D) Flow cytometric analysis of DNA of HeLa cell cultures mock-exposed (−) or exposed to the indicated concentrations of compound 115 for 6, 15 and 24 hours. Relative levels of apoptotic cells are indicated.
Cultures of HeLa cells were exposed for 96 hours to different concentrations of IHSF 001, 058 and 115, and viability was assessed using an Alamar Blue assay. It is noted that this standard assay examines attached cells only. This subject will be discussed in more detail below. […] The relative cytotoxicity of the compounds appears to parallel their respective activities as inhibitors of HSF1 function (inhibition of RLuc expression in Z74 cells). We next examined the viability of different human cancer cell lines subsequent to a 96-hour exposure to compound 115 (Table 3). HSF1 was reported as being required for optimal p21 expression and for p53-mediated cell cycle arrest in response to genotoxins. Logan, I. R. et al. (2009) Nucleic Acids Res. 37: 2962-2971. […] Cell lines of different p53 status were included in the experiments in order to find out whether sensitivity to IHSF 115 was related to p53 status. […] No effect of p53 status could be discovered. It is noted that a number of additional HSF inhibitors of the present disclosure were tested and found to effectively reduce the viability of human cancer cells.
Further studies were aimed at finding out whether IHSF-exposed cancer cells were only growth-arrested or were actually killed and, if they were killed, by what mechanism. In one type of experiment, parallel sets of HeLa cell cultures were exposed for either 24 or 96 hours to different concentrations of IHSF 115. The first set was assayed for viability by the Alamar Blue assay without prior removal of floating cells. Attached and floating cells were assayed separately in the second set; floating cells were subsequently re-plated and incubated for 72 hours without compound. […] The viability signal (in whole cultures and, more dramatically, when only attached cells were analyzed) decreased as a function of IHSF concentration. Most floating cells were incapable of re-attaching in the absence of compound (not shown); apparently, these cells had died. More profound effects were observed after 96 hours (right panel) than after 24 hours of exposure (left panel). […] Stained (necrotic) and unstained (live) cells were counted (FIG. 6B). […]

[2] = test system: hsp70b/hspa7 promoter-driven rluc gene; assay: Reverse transcription real-time PCR of rluc mRNA in Z74 cells; settings: for rluc mRNA levels at 1 μM: 1 μM concentrations of the IHSF; for transcript levels of the hsp70b/hspa7 promoter-driven rluc gene: 2 h exposure at different concentrations, heat treatment, 1 h post-incubation at 37° C.
Protocol: (§1) FIG. 4. (A) rluc, hspa7 and hspa1a mRNA levels in Z74 cells mock-exposed (−) or exposed to the indicated concentrations of compounds 058 or 115 for 2 hours, heat-treated (HS) at 43° C. for 30 min and post-incubated for one hour at 37° C. mRNA levels were quantified by reverse transcription-real-time PCR. (B) HSP72 levels in HeLa cells mock-exposed (−) or exposed to the indicated concentrations of compounds 058 or 115 for 2 hours, heat-treated (HS) at 43° C. for 30 min and post-incubated for 6 hours at 37° C. HSP72 levels were estimated by HSP72 WB. GAPDH levels served as “loading controls”.
To assess the transcriptional effects of the IHSF, cultures of Z74 cells were exposed for two hours to IHSF 058 or IHSF 115 at different concentrations, or to vehicle. Following heat treatment and a one-hour post-incubation at 37° C., extracts were prepared, and polyadenylated rluc, hsp70b (hspa7) and hspa1a RNA was quantified by reverse transcription and real-time PCR. […] IHSF 115 had somewhat more important effects than IHSF 058. […] We tend to discount the possibility that the latter data report effects on transcript stability.

[3] = test system: inducible Hsp70 (HSP72); assay: HSP72 western blot in heat-treated HeLa cells
Protocol: as §1

| SMILES | Viability of HeLa cells (Alamar Blue) ([1]; different concentrations) | rluc mRNA levels at 1 μM [2] | transcript levels of the hsp70b/hspa7 promoter-driven rluc gene [2] | heat-induced accumulation of inducible Hsp70 (WB), relative effectiveness [3] | heat-induced accumulation of inducible Hsp70 (WB) ([3]; 3.125 μM) | heat-induced accumulation of inducible Hsp70 (WB) ([3]; 6.25 μM) | killing of HeLa cells (Alamar Blue, total, floating and attached cells) ([1]; 24 or 96 hours exposure, different concentrations) | EC50 ([1]; Homo sapiens, HeLa, Cervical, P53 Wt, 96-hour exposure) [µM] |
| --- | --- | --- | --- | --- | --- | --- | --- | --- |
| CCOC(=O)/C=C/C(=O)Nc1nccs1 [IHSF 001, (E)-ethyl 4-oxo-4-(thiazol-2-ylamino)but-2-enoate] | decreased in a dose-dependent fashion | – | – | – | – | – | – | – |
| CCOC(=O)/C=C/C(=O)Nc1ncc(-c2cccnc2)s1 [IHSF 058, (E)-3-(5-Pyridm-3-yl-thiazol-2-ylcarbamoyl)-acrylic acid ethyl ester] | decreased in a dose-dependent fashion | substantially reduced | dose-dependent reduction | less effective than IHSF 115 | – | – | – | – |
| CN(C(=O)/C=C/C1=NCCCO1)c1ncc(-c2cccnc2)s1 [IHSF 115, (E)-3-(5,6-Dihydro-4H-[1,3]oxazin-2-yl)-N-methyl-N-(5-pyridin-3-yl-thiazol-2-yl)-acrylamide] | decreased in a dose-dependent fashion | substantially reduced | dose-dependent reduction | – | detectable inhibitory effects | more substantial effects | killed by IHSF 115 in a concentration- and exposure time-dependent fashion | 6.2 |
